# Assay results published in US12631620B2, “Methods of generating organoids for high throughput screening of drugs” (Yissum Research Development Company of the Hebrew …, priority 2019, dated 2026).
# Several values for one entry are separate records, joined by “and”; a condition that tells them apart may be missing. Equal values may be shown once.
# What was measured:
# [1] = tested on: HepG2/C3A organoids; experiment: Real-time oxygen uptake toxicity (TC50, time to onset, lowest exposure level) in differentiated HepG2/C3A organoids; format: cell-based, human; conditions: for TC50: oxygen uptake; for lowest exposure level (LEL): horizontal asymptote, onset of damage at infinite time
# Experimental: A suspension of HepG2/C3A cells and CPOx-50-RuP beads (Colibri Photonics, Germany) were suspended in 2.5 mg/ml rat tail collagen type I (Corning, USA) at a cell density of 7×10^5 cells/μl. A volume of 1.1 μl of the gel-imbedded mixture was injected into each microwell and left to form spontaneously until their metabolic activity stabilized around day 4.
# Fifty-micrometer-diameter polystyrene microbeads were loaded with ruthenium-phenanthroline-based phosphorescence dye (CPOx-50-RuP). […] Oxygen acts as a quencher, leading to a decrease in decay time and signal intensity with increasing concentration. The present inventors chose to measure decay time, rather than signal intensity, as it is not sensitive to changes in probe concentration or excitation intensity over the course of the experiment. The signal was measured using the OPAL system (Colibri Photonics, Germany) that comprises of a control module, 532 nm LED excitation source, and a photomultiplier (PMT) detector mounted on the ocular of an IX81 Olympus microscope (Olympus, Japan). A filter cube with 531/40 (Ex), 555, 607/70 (Em) was inserted in the optical light path during measurements. To accurately measure decay time, the present inventors chose phase modulation in which sinusoidal amplitude-modulated light is shifted in phase due to oxygen quenching. To overcome the superposition of in-phase background fluorescence that alters the phase of the detected signal, the present inventors used a novel 53.5 and 31.3 kHz two-frequency phase modulation that allowed to screen out the interference [Schmalzlin E., et al., 2005. Biophysical journal, 89: 1339-1345; Papkovsky, D. B. et al., 2004. Methods in enzymology, 381, 715-735; Ast, C., et al., 2012. Sensors (Basel), 12: 7015-7032; Engelhard, S., et al., 2006. Analytical and bioanalytical chemistry, 384: 1107-1112; Prill, D. et al., 2016, Archives of toxicology, 90: 1181-1191]. Measurements were carried out by averaging five consecutive 4-s exposures. Measurements were taken every 15 minutes. Under similar conditions, 28 days of measurement of organoids was done with no apparent phototoxicity, signal drift, or relevant loss of signal intensity (Schmalzlin E., et al., 2005. Biophysical journal, 89: 1339-1345). Assessment of Cellular Toxicity and Time to Onset
# Organoids were exposed to different concentrations of compounds dissolved in culture medium. Cell viability was determined by oxygen uptake following 24 hours of exposure unless otherwise noted. TC50 concentrations were determined using MATLAB by sigmoidal curve fitting (Wenner, M. M. et al., 2011, J Appl Physiol (1985), 111: 1703-1709; Prentice, R. L. et al., 1976, Biometrics, 32: 761-768). Time to onset was analyzed by MATLAB based on LPF and trend assessment.
# To find the asymptotic concentration for which damage occurs only at infinite exposure time, the present inventors used a previously developed model for accumulative drug exposure (El-Kareh et al., 2000. Neoplasia, 2: 325-338; Currie, G. M. 2018. J Nucl Med Technol, DOI: 10.2967/jnmt.117.199588). The model is based on the steady-state dynamics of flux accumulation, using a linear first-order approximation of the cell membrane. The flux behavior is described by
# where J(C) is the concentration dependent flux, Jmin is the minimal flux that will cause an effect, t is time of exposure and |τ is a drug-cell specific constant accounting reaction dynamics (Gowrishankar et al., 2003. Proceedings of the National Academy of Sciences of the United States of America, 100: 3203-3208; Kotnik T. et al., 2000. IEEE Trans Biomed Eng, 47: 1074-1081). In the present case, t is the Time to Onset (TTO) of damage creating a bi-asymptotic behavior. This adapted model is used to describe lowest exposure level (LEL) under first order, steady state assumptions, as
# Real-time oxygen measurements were performed optically using on-chip lifetime-based luminescence quenching (LBLQ). […]
# [2] = cited from earlier work
# [3] = tested on: E6/E7^LOW human hepatocytes; experiment: Steatosis and phospholipidosis, HCS LipidTOX detection kit, hepatocyte cultures; format: cell-based
# Experimental: Quantification of Apoptotic index was performed using DeadEnd™ fluorometric TUNEL System (Promega) according to manufacturer directions. Briefly, cells were treated with TC20 concentrations of compounds dissolved in culture medium for 24 hours, and subsequently fixed in 4% Paraformaldehyde (PFA). Cells were then permeabilized and exposed to fluorescein-12-dUTP and terminal deoxynucleotidyl transferase (TdT). The reaction was subsequently stopped and the cells counterstained with 1 μg/mL Hoechst 33258. Apoptotic cells were positive for green fluorescence in the nucleus. Percentage apoptosis was defined as the number of TUNEL positive nuclei normalized to Hoechst 33258 positive nuclei. Quantification of Steatosis was performed using HCS LipidTOX™ Phospholipidosis and Steatosis Detection Kit (ThermoFisher). Briefly, differentiated cells were incubated with different concentrations of compounds dissolved in culture medium and 1× Phospholipidosis Detection Reagent for 48 hours, subsequently fixed in 4% PFA. Cells were then stained with 1× LipidTOX™ for 20 minutes and counterstained with 1 μg/mL Hoechst 33258. Staining intensity was normalized to number of Hoechst 33258 positive nuclei. Quantification of Bile Secretion was performed using 5(6)-carboxy-2′,7′-dichlorofluorescein diacetate (CDFDA) staining. Briefly, differentiated cells were incubated with different concentrations of compounds dissolved in culture medium for 24 hours. Cells were then treated with 10 μg/mL CDFDA and 1 μg/mL Hoechst 33342 for 30 minutes. Incubation medium was removed and cultures washed with ice-cold PBS containing calcium and magnesium. Staining intensity was normalized to number of Hoechst 33342 positive nuclei. Analysis excluded Intracellular CDFDA staining based on intensity and phase images. All quantifications were made in comparison to cells treated with melatonin as negative control.
# Quantification of Apoptotic index was performed using DeadEnd™ fluorometric TUNEL System (Promega) according to manufacturer directions. Briefly, cells were treated with TC20 concentrations of compounds dissolved in culture medium for 24 hours, and subsequently fixed in 4% Paraformaldehyde (PFA). Cell were then permeabilized and exposed to fluorescein-12-dUTP and terminal deoxynucleotidyl transferase (TdT). The reaction was subsequently stopped and the cells counterstained with 1 μg/mL Hoechst 33258. Apoptotic cells were positive for green fluorescence in the nucleus. […] Quantification of Steatosis was performed using HCS LipidTOX™ Phospholipidosis and Steatosis Detection Kit (ThermoFisher). […] Quantification of Bile Secretion was performed using 5(6)-carboxy-2′,7′-dichlorofluorescein diacetate (CDFDA) staining. […] All quantifications were made in comparison to cells treated with melatonin as negative control.
# [4] = tested on: HepG2/C3A organoids; experiment: Neutral lipid and phospholipid staining of HepG2/C3A organoids on chip; format: cell-based, human; conditions: p<0.001, n=9
# [5] = tested on: E6/E7^LOW hepatocytes; conditions: flux balance analysis, below threshold of cellular damage; Valproate sustained, Stavudine transient
# Experimental: According to some embodiments of the invention there is a sensor-integrated liver on chip array in which oxygen is monitored using two-frequency phase modulation of tissue-embedded phosphorescent microprobes, while glucose, lactate and temperature are measured in real time using microfluidic electrochemical sensors. Such a microphysiological platform permits the calculation of dynamic changes in metabolic fluxes around central carbon metabolism, producing a unique metabolic fingerprint of the liver's response to stimuli.
smiles,measurement,setting,value
"CCCC(CCC)C(=O)O [Valproate, 2-n-propylpentanoic acid]",TC50,[1]; at 24 hours,27 mM
same,TC50,[1]; at 42 hours,14 mM and 14 ± 2 mM
same,Time to onset (TTO) of response,[1]; dose-dependent range over concentrations tested,6 to 36 h
same,lowest exposure level (LEL),[1]; ± standard error,280 ± 97 µM
same,lowest exposure level (LEL),[1]; ± standard error of curve fit,280 ± 97 µM
same,TC50 plateau value as a function of time,[1]; plateau of TC50 over time,around 5 mM
same,direct mitochondrial damage,[1]; sub-toxic levels,no indication of direct mitochondrial damage
same,patients with evidence of steatosis,[2]; abdominal ultrasound,61%
same,patients with elevated liver enzymes,[2]; patients on therapy,Over 40%
same,phospholipidosis,[3],Evidence of phospholipidosis was seen
same,neutral lipids,"[3]; p<0.001, n=4",strong and significant increase
same,increase in the amount of intracellular lipids,[4],4 fold
same,increase in lipogenesis,[5],15%
